Measurements published in US20220305012A1, “L[…] TREATING SLEEP ISSUES” (EISAI R&D MANAGEMENT CO., LTD., priority 2019, published 2022).

How the values were obtained:
Format in all cases: in vivo, human
[1] = test system: Subjects Having Insomnia Disorder; assay: Example 1: treatment-emergent adverse events; conditions: for TEAEs: Safety Analysis Set
Method: Subjects were randomized in a double-blind manner and received either placebo, 5 mg of lemborexant, or 10 mg of lemborexant (approximately 1:1:1 randomization). All subjects underwent routine safety monitoring through the study, including assessments of treatment-emergent adverse events, 12-lead electrocardiograms, vital signs, weight, and clinical hematology and blood chemistry labs. Suicidality was assessed using the eC-SSRS.
Safety endpoints for this study included the safety and tolerability of lemborexant (1) compared to placebo (during treatment period 1) and (2) in subjects exposed to lemborexant for 3, 6, 9, and 12 months.

[2] = test system: Subjects Having Insomnia Disorder; assay: Example 2: REM latency; conditions: both doses (FIG. 16)
[3] = Example 2: plasma concentrations of lemborexant and metabolites
Method: Within 5 minutes of the subject's mean habitual bedtime, study drug was administered and an overnight polysomnogram recording was initiated. At completion of the recording the following morning (Day 2), postural stability and cognitive performance were assessed. On the Day 2 evening, subjects returned to the clinic and a blood sample was collected before administering study drug, and then study drug was administered within 5 minutes of the subject's mean habitual bedtime. Again, a polysomnogram recording was initiated. The next morning (Day 3), postural stability and cognitive performance were assessed. A blood sample was also collected.
On the evening of Day 30, subjects returned to the clinic. A pre-dose blood sample was collected and study drug was again administered within 5 minutes of the subject's mean habitual bedtime. A polysomnogram recording was initiated. The following morning (Day 31), postural stability and cognitive performance were assessed and a blood sample was obtained. The ISI, FSS, EQ-5D-3L and PGI-Insomnia were administered. Blood and urine samples were collected for routine safety assessment. An electrocardiogram was performed, and vital signs and weight were assessed. The eC-SSRS was then administered to the subject. At 1.5 hours after waketime, subjects rated their morning sleepiness level.

[4] = test system: Subjects Having Insomnia Disorder; assay: Example 3: proportion of sWASO responders (pooled Examples 1 and 2)
Method: The data collected in studies described in Example 1 and Example 2 were pooled and the response of each subject was analyzed.

[5] = Lemborexant 5 mg dose, Day 2 Post-Dose
[6] = Lemborexant 5 mg dose, Day 2 Pre-Dose
[7] = Lemborexant 5 mg dose, Day 29 Post-Dose
[8] = Lemborexant 5 mg dose, Day 29 Pre-Dose
[9] = Lemborexant 10 mg dose, Day 2 Post-Dose
[10] = Lemborexant 10 mg dose, Day 2 Pre-Dose
[11] = Lemborexant 10 mg dose, Day 29 Post-Dose
[12] = Lemborexant 10 mg dose, Day 29 Pre-Dose
[13] = First 7 Days, Lemborexant 10 mg

Q: Which results are given for `Cc1ncc(OC[C@@]2(c3cccc(F)c3)C[C@H]2C(=O)Nc2ccc(F)cn2)c(C)n1` [Lemborexant, (1R,2S)-2-(((2,4-dimethylpyrimidin-5-yl)oxy)methyl)-2-(3-fluorophenyl)-N-(5-fluoropyridin-2-yl)cyclopropanecarboxamide]?
A: Deaths ([1]; 5 mg (N = 314)): 0 n (%); Other SAEs ([1]; 5 mg (N = 314)): 7 (2.2) n (%); SAEs: Congenital anomaly/birth defect ([1]; 5 mg (N = 314)): 0 n (%); SAEs: Important medical events ([1]; 5 mg (N = 314)): 1 (0.3) n (%); SAEs: Life threatening ([1]; 5 mg (N = 314)): 0 n (%); SAEs: Persistent or significant disability or incapacity ([1]; 5 mg (N = 314)): 0 n (%); SAEs: Requires inpatient hospitalization or prolongation of existing hospitalization ([1]; 5 mg (N = 314)): 6 (1.9) n (%); Serious TEAEs ([1]; 5 mg (N = 314)): 7 (2.2) n (%); Severe TEAEs ([1]; 5 mg (N = 314)): 13 (4.1) n (%); TEAEs leading to study dose reduced ([1]; 5 mg (N = 314)): 0 n (%); TEAEs leading to study drug dose adjustment ([1]; 5 mg (N = 314)): 25 (8.0) n (%); TEAEs leading to study drug interrupted ([1]; 5 mg (N = 314)): 13 (4.1) n (%); TEAEs leading to study drug withdrawal ([1]; 5 mg (N = 314)): 13 (4.1) n (%); Treatment-related TEAEs ([1]; 5 mg (N = 314)): 78 (24.8) n (%); TEAEs ([1]; 5 mg (N = 314)): 192 (61.1) n (%); Deaths ([1]; 10 mg (N = 314)): 0 n (%); Other SAEs ([1]; 10 mg (N = 314)): 9 (2.9) n (%); SAEs: Congenital anomaly/birth defect ([1]; 10 mg (N = 314)): 0 n (%); SAEs: Important medical events ([1]; 10 mg (N = 314)): 0 n (%); SAEs: Life threatening ([1]; 10 mg (N = 314)): 0 n (%); SAEs: Persistent or significant disability or incapacity ([1]; 10 mg (N = 314)): 0 n (%); SAEs: Requires inpatient hospitalization or prolongation of existing hospitalization ([1]; 10 mg (N = 314)): 9 (2.9) n (%); Serious TEAEs ([1]; 10 mg (N = 314)): 9 (2.9) n (%); Severe TEAEs ([1]; 10 mg (N = 314)): 8 (2.5) n (%); TEAEs leading to study dose reduced ([1]; 10 mg (N = 314)): 0 n (%); TEAEs leading to study drug dose adjustment ([1]; 10 mg (N = 314)): 33 (10.5) n (%); TEAEs leading to study drug interrupted ([1]; 10 mg (N = 314)): 8 (2.5) n (%); TEAEs leading to study drug withdrawal ([1]; 10 mg (N = 314)): 26 (8.3) n (%); Treatment-related TEAEs ([1]; 10 mg (N = 314)): 91 (29.0) n (%); TEAEs ([1]; 10 mg (N = 314)): 187 (59.6) n (%); safety and tolerability (incidence of adverse events) ([1]; Example 1 (Table 11)): safe and well-tolerated; REM latency [2]: greater mean decrease in REM latency compared to treatment with placebo and zolpidem ER; Plasma Concentrations, BLQ (<0.0500 ng/mL), n (%) [3, 5]: 6 (2.3) n (%); Plasma Concentrations, Mean (SD) [3, 5]: 5.3 (2.55) ng/mL; Plasma Concentrations, Median [3, 5]: 5.0 ng/mL; Plasma Concentrations, BLQ (<0.0500 ng/mL), n (%) [3, 6]: 10 (3.9) n (%); Plasma Concentrations, Mean (SD) [3, 6]: 2.1 (1.48) ng/mL; Plasma Concentrations, Median [3, 6]: 1.8 ng/mL; Plasma Concentrations, BLQ (<0.0500 ng/mL), n (%) [3, 7]: 6 (2.4) n (%); Plasma Concentrations, Mean (SD) [3, 7]: 10.7 (6.66) ng/mL; Plasma Concentrations, Median [3, 7]: 9.1 ng/mL; Plasma Concentrations, BLQ (<0.0500 ng/mL), n (%) [3, 8]: 8 (3.1) n (%); Plasma Concentrations, Mean (SD) [3, 8]: 7.3 (5.60) ng/mL; Plasma Concentrations, Median [3, 8]: 6.1 ng/mL; Plasma Concentrations, BLQ (<0.0500 ng/mL), n (%) [3, 9]: 5 n (%); Plasma Concentrations, Mean (SD) [3, 9]: 11.5 ng/mL; Plasma Concentrations, Median [3, 9]: 10.4 ng/mL; Plasma Concentrations, BLQ (<0.0500 ng/mL), n (%) [3, 10]: 15 n (%); Plasma Concentrations, Mean (SD) [3, 10]: 4.4 ng/mL; Plasma Concentrations, Median [3, 10]: 3.7 ng/mL; Plasma Concentrations, BLQ (<0.0500 ng/mL), n (%) [3, 11]: 6 n (%); Plasma Concentrations, Mean (SD) [3, 11]: 21.1 ng/mL; Plasma Concentrations, Median [3, 11]: 19.6 ng/mL; Plasma Concentrations, BLQ (<0.0500 ng/mL), n (%) [3, 12]: 6 n (%); Plasma Concentrations, Mean (SD) [3, 12]: 15.1 ng/mL; Plasma Concentrations, Median [3, 12]: 13.7 ng/mL; Subjective Wake After Sleep Onset Responder, No, n (%) ([4]; First 7 Days, Lemborexant 5 mg): 420 (81.1) n (%); Subjective Wake After Sleep Onset Responder, Yes, n (%) ([4]; First 7 Days, Lemborexant 5 mg): 91 (17.6) n (%); Subjective Wake After Sleep Onset Responders, Difference of proportion vs. Placebo ([4]; First 7 Days, Lemborexant 5 mg): 6.15; Subjective Wake After Sleep Onset Responder, No, n (%) [4, 13]: 411 (79.5) n (%); Subjective Wake After Sleep Onset Responder, Yes, n (%) [4, 13]: 100 (19.3) n (%); Subjective Wake After Sleep Onset Responders, Difference of proportion vs. Placebo [4, 13]: 7.84; Subjective Wake After Sleep Onset Responder, No, n (%) ([4]; Month 1, Lemborexant 5 mg): 372 (71.8) n (%); Subjective Wake After Sleep Onset Responder, Yes, n (%) ([4]; Month 1, Lemborexant 5 mg): 121 (23.4) n (%); Subjective Wake After Sleep Onset Responders, Difference of proportion vs. Placebo ([4]; Month 1, Lemborexant 5 mg): 5.61; Subjective Wake After Sleep Onset Responder, No, n (%) ([4]; Month 1, Lemborexant 10 mg): 368 (71.2) n (%); Subjective Wake After Sleep Onset Responder, Yes, n (%) ([4]; Month 1, Lemborexant 10 mg): 122 (23.6) n (%); Subjective Wake After Sleep Onset Responders, Difference of proportion vs. Placebo ([4]; Month 1, Lemborexant 10 mg): 5.96; proportion of sWASO responders compared with placebo ([4]; both doses, first 7 days and end of month 1, responder: sWASO of 60 or less minutes and reduction of at least 10 minutes, baseline >60 minutes (Table 31)): statistically significantly superior
